In ChEMBL document CHEMBL1133944, “Identification of a series of oxadiazole-substituted alpha-isopropoxy phenylpropanoic acids with activity on PPARalpha, PPARgamma, and PPARdelta” (Bioorg Med Chem Lett, 2001):

Experiments:
[1] = target: T1, Peroxisome proliferator-activated receptor gamma (Homo sapiens, UniProt P37231); test: Agonist activity against human Peroxisome proliferator activated receptor gamma receptor in CV-1 cell was determined; type: functional, cell-based
T1 sequence (P37231 whole entry): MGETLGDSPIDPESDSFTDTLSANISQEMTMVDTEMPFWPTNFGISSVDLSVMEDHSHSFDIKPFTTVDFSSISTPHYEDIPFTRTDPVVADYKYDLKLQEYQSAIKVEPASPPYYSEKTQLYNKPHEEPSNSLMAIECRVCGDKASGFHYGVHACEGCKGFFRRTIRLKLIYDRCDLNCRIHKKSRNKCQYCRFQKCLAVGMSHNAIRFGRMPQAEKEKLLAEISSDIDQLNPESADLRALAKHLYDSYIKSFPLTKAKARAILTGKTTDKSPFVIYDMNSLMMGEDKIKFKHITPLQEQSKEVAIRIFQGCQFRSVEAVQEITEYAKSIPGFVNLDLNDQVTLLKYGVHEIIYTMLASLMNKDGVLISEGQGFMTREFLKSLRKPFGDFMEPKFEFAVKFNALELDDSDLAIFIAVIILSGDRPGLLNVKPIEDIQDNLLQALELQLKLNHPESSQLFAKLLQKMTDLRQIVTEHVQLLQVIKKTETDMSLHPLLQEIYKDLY

[2] = target: T2, Peroxisome proliferator-activated receptor alpha (Homo sapiens, UniProt Q07869); test: Agonist activity against human Peroxisome proliferator activated receptor alpha receptor in CV-1 cell was determined; type: functional, cell-based
T2 sequence (Q07869 whole entry): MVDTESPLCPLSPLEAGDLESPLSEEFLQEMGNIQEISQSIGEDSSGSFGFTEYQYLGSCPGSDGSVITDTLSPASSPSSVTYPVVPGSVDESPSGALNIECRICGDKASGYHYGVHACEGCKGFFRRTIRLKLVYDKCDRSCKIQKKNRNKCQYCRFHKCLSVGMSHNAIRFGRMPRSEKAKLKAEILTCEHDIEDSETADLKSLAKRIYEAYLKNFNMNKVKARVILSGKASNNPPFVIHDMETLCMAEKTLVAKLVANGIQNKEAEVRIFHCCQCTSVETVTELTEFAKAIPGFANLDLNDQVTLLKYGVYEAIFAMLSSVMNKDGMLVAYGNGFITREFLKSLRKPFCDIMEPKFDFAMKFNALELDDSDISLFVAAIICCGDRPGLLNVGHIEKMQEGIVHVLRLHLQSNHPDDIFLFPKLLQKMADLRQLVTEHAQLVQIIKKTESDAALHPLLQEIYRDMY

[3] = target: T3, Peroxisome proliferator-activated receptor delta (Homo sapiens, UniProt Q03181); test: Agonist activity against human PPAR delta receptor in CV-1 cell was determined; type: functional, cell-based
T3 sequence (Q03181 whole entry): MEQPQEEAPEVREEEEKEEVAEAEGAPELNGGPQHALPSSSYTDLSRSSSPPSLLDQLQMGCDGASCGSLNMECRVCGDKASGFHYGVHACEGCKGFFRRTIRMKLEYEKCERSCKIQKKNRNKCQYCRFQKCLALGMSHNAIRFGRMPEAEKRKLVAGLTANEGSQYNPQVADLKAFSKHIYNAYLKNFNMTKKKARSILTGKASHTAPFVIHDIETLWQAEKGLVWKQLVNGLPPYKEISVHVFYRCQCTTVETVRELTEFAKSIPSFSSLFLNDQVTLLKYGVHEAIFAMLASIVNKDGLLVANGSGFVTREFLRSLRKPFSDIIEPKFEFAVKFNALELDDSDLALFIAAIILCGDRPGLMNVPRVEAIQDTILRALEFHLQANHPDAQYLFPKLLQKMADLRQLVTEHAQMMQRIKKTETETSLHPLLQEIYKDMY

[4] = target: T1, Peroxisome proliferator-activated receptor gamma; test: Agonist activity against human peroxisome proliferator activated receptor gamma was determined; type: functional
[5] = target: T2, Peroxisome proliferator-activated receptor alpha; test: Agonist activity against human Peroxisome proliferator activated receptor alpha was determined; type: functional
[6] = target: T4, Peroxisome proliferator-activated receptor delta (Homo sapiens) (UniProt Q03181); test: Percent activation for human Peroxisome proliferator activated receptor delta; type: functional
T4 sequence (whole entry): T3 sequence (Q03181 whole entry)

[7] = target: T1, Peroxisome proliferator-activated receptor gamma; test: Agonist activity against human peroxisome proliferator activated receptor gamma in CV-1 cell was determined; type: functional, cell-based
[8] = target: T3, Peroxisome proliferator-activated receptor delta; test: Agonist activity against human Peroxisome proliferator activated receptor delta in CV-1 cell was determined; type: functional, cell-based
[9] = target: T2, Peroxisome proliferator-activated receptor alpha; test: Agonist activity against human Peroxisome proliferator activated receptor alpha in CV-1 cell was determined; type: functional, cell-based

| SMILES | EC50 [1] | EC50 [2] | EC50 [3] | other results |
| --- | --- | --- | --- | --- |
| Cc1cccc(-c2nc(COc3ccc(CC(OC(C)C)C(=O)O)cc3)no2)c1 (stereo not drawn) | 50 nM | 79 nM | 1600 nM | – |
| CC(C)OC(Cc1ccc(OCCc2noc(-c3cc(C(F)(F)F)cc(C(F)(F)F)c3)n2)cc1)C(=O)O (stereo not drawn) | – | – | – | EC50 [4]: 4 nM; EC50 [5]: 50 nM; Activation [6]: < 40% |
| CC(C)OC(Cc1ccc(OCc2noc(-c3cc(F)cc(F)c3)n2)cc1)C(=O)O (stereo not drawn) | 100 nM | 40 nM | 160 nM | – |
| CC(C)OC(Cc1ccc(OCc2noc(-c3ccc(C(C)C)cc3)n2)cc1)C(=O)O (stereo not drawn) | 4 nM | 13 nM | 7900 nM | – |
| CC(C)OC(Cc1ccc(OCc2noc(-c3cc(C(F)(F)F)cc(C(F)(F)F)c3)n2)cc1)C(=O)O (stereo in doubt; (+)1n) [listing 1 of 2 here] | – | – | – | Activation [6]: 40% |
| CC(C)OC(Cc1ccc(OCc2noc(C3CCCCC3)n2)cc1)C(=O)O (stereo not drawn) | 230 nM | 240 nM | – | – |
| CC(C)OC(Cc1ccc(OCCc2noc(-c3cccc(Cl)c3)n2)cc1)C(=O)O (stereo not drawn) | 4 nM | 320 nM | 100 nM | – |
| CC(C)OC(Cc1ccc(OCCc2noc(-c3cccc(F)c3)n2)cc1)C(=O)O (stereo not drawn) | 2 nM | 500 nM | 4000 nM | – |
| CC(C)OC(Cc1ccc(OCc2noc(-c3ccccc3)n2)cc1)C(=O)O (stereo not drawn) | 79 nM | 160 nM | 10000 nM | – |
| CC(C)OC(Cc1ccc(OCc2noc(-c3ccc(F)cc3)n2)cc1)C(=O)O (stereo not drawn) | 200 nM | 160 nM | 7900 nM | – |
| CC(C)OC(Cc1ccc(OCc2noc(-c3cccc(F)c3)n2)cc1)C(=O)O (stereo not drawn) | 100 nM | 79 nM | 7900 nM | – |
| CC(C)OC(Cc1ccc(OCCc2noc(-c3ccccc3)n2)cc1)C(=O)O (stereo not drawn) | 13 nM | 2000 nM | – | – |
| CC(C)OC(Cc1ccc(OCCc2noc(-c3ccccc3C(F)(F)F)n2)cc1)C(=O)O (stereo not drawn) | – | – | – | EC50 [7]: 160 nM; EC50 [8]: 2500 nM; EC50 [9]: 400 nM |
| CC(C)OC(Cc1ccc(OCc2noc(-c3cc(C(F)(F)F)cc(C(F)(F)F)c3)n2)cc1)C(=O)O (stereo in doubt; (+)1n) [listing 2 of 2 here] | – | – | – | EC50 [7]: 630 nM; EC50 [8]: 790 nM; EC50 [9]: 2500 nM |
| Cc1ccc(-c2nc(COc3ccc(CC(OC(C)C)C(=O)O)cc3)no2)cc1 (stereo not drawn) | 16 nM | 25 nM | 2500 nM | – |
| CC(C)OC(Cc1ccc(OCc2noc(-c3ccc(C(F)(F)F)cc3)n2)cc1)C(=O)O (stereo not drawn) | 25 nM | 32 nM | 500 nM | – |
| CC(C)OC(Cc1ccc(OCc2noc(-c3cc(C(F)(F)F)cc(C(F)(F)F)c3)n2)cc1)C(=O)O (stereo not drawn) | 32 nM | 6 nM | 320 nM | – |
| CC(C)OC(Cc1ccc(OCc2noc(-c3ccc(Cl)cc3)n2)cc1)C(=O)O (stereo not drawn) | 20 nM | 13 nM | 500 nM | – |
| CC(C)OC(Cc1ccc(OCc2noc(-c3ccc(C(C)(C)C)cc3)n2)cc1)C(=O)O (stereo not drawn) | 3 nM | 40 nM | 5000 nM | – |
| Cc1ccccc1-c1nc(COc2ccc(CC(OC(C)C)C(=O)O)cc2)no1 (stereo not drawn) | 100 nM | 40 nM | 1600 nM | – |
| CC(C)OC(Cc1ccc(OCc2noc(-c3cc(C(F)(F)F)cc(C(F)(F)F)c3)n2)cc1)C(=O)O (stereo in doubt; -1n) [listing 1 of 2 here] | – | – | – | Activation [6]: 40% |
| CC(C)OC(Cc1ccc(OCc2noc(-c3cc(C(F)(F)F)cc(C(F)(F)F)c3)n2)cc1)C(=O)O (stereo in doubt; -1n) [listing 2 of 2 here] | – | – | – | EC50 [7]: 32 nM; EC50 [8]: 630 nM; EC50 [9]: 4 nM |

Further lines, with some results ahead:

| EC50 [1] | EC50 [2] | EC50 [3] | SMILES | other results |
| --- | --- | --- | --- | --- |
| 32 nM | 40 nM | 790 nM | CC(C)OC(Cc1ccc(OCc2noc(-c3ccc(Br)cc3)n2)cc1)C(=O)O (stereo not drawn) | – |
| 25 nM | 400 nM | – | CC(C)OC(Cc1ccc(OCCc2noc(-c3ccc(Cl)cc3)n2)cc1)C(=O)O (stereo not drawn) | – |
| 6 nM | 200 nM | 500 nM | CC(C)OC(Cc1ccc(OCCc2noc(-c3cccc(C(F)(F)F)c3)n2)cc1)C(=O)O (stereo not drawn) | – |
| 40 nM | 790 nM | – | CC(C)OC(Cc1ccc(OCCc2noc(-c3ccc(F)cc3)n2)cc1)C(=O)O (stereo not drawn) | – |
| 63 nM | 20 nM | 7900 nM | CC(C)OC(Cc1ccc(OCc2noc(-c3ccc(OC(F)(F)F)cc3)n2)cc1)C(=O)O (stereo not drawn) | – |
